# Measurements reported in publication PMC12723449, “From Pharmacophore to Warhead: NAD^+‐Targeting Triazoles as Mechanism‐Based Sirtuin Inhibitors” (Angewandte Chemie (International Ed. in English), 2025).
# T1: SIRT2 (Homo sapiens, UniProt Q8IXJ6)
# T1 construct: For assay experiments, strep-tagged human SIRT1134−747 and SIRT256-356 were expressed and purified as previously; Strep-tag; made in house; host or cells: E. coli BL21 Star (DE3)
# T1 sequence (Q8IXJ6 56-356 limits assumed): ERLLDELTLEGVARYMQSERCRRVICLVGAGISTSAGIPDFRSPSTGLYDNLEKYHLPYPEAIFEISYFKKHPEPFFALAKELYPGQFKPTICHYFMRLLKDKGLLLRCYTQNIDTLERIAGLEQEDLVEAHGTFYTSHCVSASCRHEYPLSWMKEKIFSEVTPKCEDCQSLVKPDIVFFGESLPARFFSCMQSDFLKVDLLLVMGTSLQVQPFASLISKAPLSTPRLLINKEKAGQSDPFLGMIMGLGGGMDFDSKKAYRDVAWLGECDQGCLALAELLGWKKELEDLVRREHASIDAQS
# T2: SIRT1 (Homo sapiens, UniProt Q96EB6)
# T2 construct: For assay experiments, strep-tagged human SIRT1134−747 and SIRT256-356 were expressed and purified as previously; Strep-tag; made in house; host or cells: E. coli BL21 Star (DE3)
# T2 sequence (Q96EB6 134-747 limits assumed): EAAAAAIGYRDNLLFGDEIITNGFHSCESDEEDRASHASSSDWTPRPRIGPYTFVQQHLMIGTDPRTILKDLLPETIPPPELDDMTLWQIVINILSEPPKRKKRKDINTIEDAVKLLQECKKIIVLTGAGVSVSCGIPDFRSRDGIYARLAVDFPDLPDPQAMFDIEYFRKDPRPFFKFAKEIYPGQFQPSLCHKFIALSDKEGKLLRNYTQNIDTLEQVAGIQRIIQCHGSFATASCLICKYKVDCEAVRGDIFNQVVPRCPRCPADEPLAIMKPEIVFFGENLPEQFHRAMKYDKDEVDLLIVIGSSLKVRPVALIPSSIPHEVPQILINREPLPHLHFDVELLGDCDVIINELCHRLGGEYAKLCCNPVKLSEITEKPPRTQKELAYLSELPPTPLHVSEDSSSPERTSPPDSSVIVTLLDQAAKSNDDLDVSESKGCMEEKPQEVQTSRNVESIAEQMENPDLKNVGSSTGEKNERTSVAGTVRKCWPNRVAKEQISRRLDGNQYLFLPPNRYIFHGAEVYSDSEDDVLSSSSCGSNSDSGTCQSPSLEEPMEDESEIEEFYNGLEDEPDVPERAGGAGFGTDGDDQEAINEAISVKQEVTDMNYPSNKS
# T3: SIRT3 (Homo sapiens, UniProt Q9NTG7)
# T3 construct: Human SIRT3118-395 was expressed and purified as previously described.[5]; made in house
# T3 sequence (Q9NTG7 118-395 limits assumed): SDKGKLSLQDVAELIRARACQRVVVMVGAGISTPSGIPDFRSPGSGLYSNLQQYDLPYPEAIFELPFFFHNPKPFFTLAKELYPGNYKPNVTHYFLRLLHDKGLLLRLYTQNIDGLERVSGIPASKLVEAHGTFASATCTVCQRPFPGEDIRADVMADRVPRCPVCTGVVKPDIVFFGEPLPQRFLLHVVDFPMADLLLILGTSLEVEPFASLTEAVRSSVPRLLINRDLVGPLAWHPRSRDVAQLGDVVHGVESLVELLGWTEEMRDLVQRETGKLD
# T4: NanoLuc–SIRT2 fusion protein in HEK293T cells (Homo sapiens, UniProt Q8IXJ6)
# T4 construct: HEK293T cells stably expressing the NanoLuc-SIRT250-364-fusion target protein were seeded into the coated plates; expressed in transfected cells; host or cells: HEK293T (stably expressing)
# T4 sequence (Q8IXJ6 50-364 limits assumed): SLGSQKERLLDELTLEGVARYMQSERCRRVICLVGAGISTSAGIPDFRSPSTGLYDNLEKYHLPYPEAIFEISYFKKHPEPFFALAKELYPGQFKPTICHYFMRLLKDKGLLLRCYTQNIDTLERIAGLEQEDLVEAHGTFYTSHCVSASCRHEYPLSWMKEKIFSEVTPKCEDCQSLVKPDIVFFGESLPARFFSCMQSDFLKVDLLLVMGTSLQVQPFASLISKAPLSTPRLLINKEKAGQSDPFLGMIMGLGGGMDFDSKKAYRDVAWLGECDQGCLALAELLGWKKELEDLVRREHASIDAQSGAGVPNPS
# T5: NanoLuc–SIRT2 fusion protein in HEK293T cells (Homo sapiens, UniProt Q8IXJ6)
# T5 construct: transfected HEK293T cells expressing the NanoLuc-tagged SIRT250-356 fusion protein were used instead of transient; expressed in transfected cells; host or cells: HEK293T (stably transfected)
# T5 sequence (Q8IXJ6 50-356 limits assumed): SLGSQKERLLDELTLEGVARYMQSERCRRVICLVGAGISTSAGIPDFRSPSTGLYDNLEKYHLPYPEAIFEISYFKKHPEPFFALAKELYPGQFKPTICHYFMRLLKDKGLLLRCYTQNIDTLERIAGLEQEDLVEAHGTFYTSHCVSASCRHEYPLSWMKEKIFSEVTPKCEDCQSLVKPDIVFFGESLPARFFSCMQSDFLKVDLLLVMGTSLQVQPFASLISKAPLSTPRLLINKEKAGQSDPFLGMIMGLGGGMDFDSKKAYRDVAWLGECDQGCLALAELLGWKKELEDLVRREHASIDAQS
# B1: Sirtuin 2 (SIRT2) (enzyme)
# chain: MAEPDPSHPLETQAGKVQEAQDSDSDSEGGAAGGEADMDFLRNLFSQTLSLGSQKERLLDELTLEGVARYMQSERCRRVICLVGAGISTSAGIPDFRSPSTGLYDNLEKYHLPYPEAIFEISYFKKHPEPFFALAKELYPGQFKPTICHYFMRLLKDKGLLLRCYTQNIDTLERIAGLEQEDLVEAHGTFYTSHCVSASCRHEYPLSWMKEKIFSEVTPKCEDCQSLVKPDIVFFGESLPARFFSCMQSDFLKVDLLLVMGTSLQVQPFASLISKAPLSTPRLLINKEKAGQSDPFLGMIMGLGGGMDFDSKKAYRDVAWLGECDQGCLALAELLGWKKELEDLVRREHASIDAQSGAGVPNPSTSASPKKSPPPAKDEARTTEREKPQ
# Assays:
# SIRT2 [1] = target: T1, SIRT2; assay: Fluorescence-based deacetylation assay (ZMAL-assay), SIRT2; format: biochemical; conditions: 37 °C, assay limit 0.10 µM, read-out: SIRT2 (deac.) IC50
# Procedure: (§1) Determination of IC50 values (SIRT1, SIRT2, SIRT3) via fluorescence-based deacetylation assay […]
# (§2) The fluorescence-based deacetylation assay was conducted in a black 384-well microplate (OptiPlate-384 F, PerkinElmer) with a total volume of 30 µL per well and a final DMSO concentration of 2% (v/v) according to a […]
# (§3) concentration of 100 nM) in assay buffer (50 mM Tris, 137 mM NaCl, 2.7 mM KCl, 1m MgCl2, 0.01% Tween, 0.05 mg/mL BSA, 0.2 mM TCEP, pH 8.0), 5 µL of substrate (ZMAL, final concentration of 10.5 µM), 5 µL of NAD+ (final concentration of 500 µM) and 10 µL of inhibitor solution (final concentration of 30 µM – 0.014 µM, serial 1:3 dilutions) was incubated at 37 °C and 300 rpm for 4 h. A solution of trypsin (final concentration of 0.5 mg/mL) and nicotinamide (final concentration of 4 mM) was added and incubated at 37 °C and 300 rpm for 30 min to stop the reaction. Samples with 2% (v/v) DMSO instead of inhibitor were prepared as a positive control, and samples with 2% (v/v) DMSO instead of SIRT enzyme were prepared as a negative control. Fluorescence intensity was measured with a microplate reader (λEx = 380-10 nm, λEm = 460 nm, BMG POLARstar Optima, BMG Labtech, Germany). IC50 values were then determined using a nonlinear regression fit with Origin Pro 2019 software. All experiments were performed at least in duplicates. […]
# SIRT1 = target: T2, SIRT1; assay: Fluorescence-based deacetylation assay (ZMAL-assay), SIRT1; format: biochemical; conditions: 37 °C, assay limit 0.10 µM; for IC50: read-out: SIRT1 (deac.) IC50
# Procedure: as §1, §2, §3
# SIRT2 [2] = target: T1, SIRT2; assay: Fluorescence-based demyristoylation assay (BSA-Assay); format: biochemical
# Procedure: Determination of IC50 values (SIRT2) via fluorescence-based demyristoylation assay (BSA-Assay) The fluorescence-based demyristoylation assay was conducted in a continuous manner in a black 384-well microplate (OptiPlate-384 F, PerkinElmer) with a total volume of 40 µL per well and a final DMSO concentration of 5% (v/v), following a published procedure.[9] A mixture of 14 µL SIRT2 (final concentration of 1 nM) in assay buffer (20 mM Tris, 150 mM NaCl, […], pH 7.8) freshly supplemented with 2 mg/mL of BSA, 14 µL of substrate (F4, KM = 33 ± 5 nM[9], final concentration of 40 nM) and 2 µL of inhibitor solution (final concentration of 100 µM – 0.002 µM, serial 1:2 or 1:4 dilutions) was incubated at 25 °C and 350 rpm for 5 min. Samples with 5% (v/v) DMSO instead of inhibitor were measured as a positive control, and samples with assay buffer and 5% (v/v) DMSO instead of SIRT2 were measured as a negative control. The reaction was started with the addition of 10 µL NAD+ (final concentration of 500 µM) and the product formation was immediately monitored by the change of the fluorescence intensity at 25 °C for 20 min. For NAD+ preincubation experiments, instead of the substrate, 10 µL of NAD+ (final concentration of 500 µM) was added to the solution and incubated at 25 °C and 350 rpm for 15 min. The reaction was started with the addition of 14 µL substrate (final concentration of 40 nM) and the product formation was immediately monitored by the change of the fluorescence intensity at 25 °C every 60 s for 20 min using a microplate reader (λEx = 485 nm, λEm = 530-10 nm, BMG POLARstar Optima, BMG Labtech, Germany).
# The activity was normalized using the positive control as 100% and the negative control as 0%. The normalized activity (v/v0) was plotted as a function of the logarithm of the inhibitor concentration [I], and a nonlinear fit was performed according to the following equation to determine the IC50 value.[9] […]
# SIRT3 = target: T3, SIRT3; assay: Fluorescence-based deacetylation assay (ZMAL-assay), SIRT3; format: biochemical; conditions: 37 °C, assay limit 0.10 µM; for IC50: read-out: SIRT3 (deac.) IC50
# Procedure: as §1, §2, §3
# SIRT2 [3] = target: T1, SIRT2; assay: Differential scanning fluorimetry (DSF) / fluorescence thermal shift assay; format: binding; conditions: 10 µM compound, with NAD+ addition
# Procedure: Differential scanning fluorimetry (DSF) assay
# Differential scanning fluorimetry assays were performed in white 96-well plates (Hard-Shell PCR Plates, BioRad, USA) with a total volume of 20 µL per well and a final DMSO concentration of 5% (v/v), following a published
# A solution of 10 µL SIRT2 (final concentration of 6.0 µM) and SYPRO Orange (5x, Sigma-Aldrich, Germany) in assay buffer (25 mM Tris-HCl, 150 mM NaCl, 1 mM DTT, pH 8.0) was mixed with 10 µL of compound and incubated at 25 °C and 350 rpm for 5 min. Where applicable, NAD+ was added to a final concentration of 2.5 mM. Fluorescence
# (C1000 Touch™ Thermal Cycler, CFX96™ Real-Time System, BioRad, USA). Melting temperatures were determined using GraphPad Prism, following a published procedure.[6]
# [4] = target: T4, NanoLuc–SIRT2 fusion protein in HEK293T cells; assay: Kinetic NanoBRET washout assay (target residence time); format: cell-based; conditions: 8 µM (10 × EC50), 2 h preincubation, 2 h washout
# Procedure: NanoBRET washout assay for determination of target residence time
# A NanoBRET-based washout assay was used to assess the target residence time of inhibitors for SIRT2 in living cells. White, flat-bottom 96-well plates (PerkinElmer) were pre-coated with poly-L-lysine (Sigma-Aldrich) to enhance cell adherence. Briefly, each well was treated with poly-L-lysine solution for 5 min at room temperature, followed by removal of the coating solution and air-drying before seeding.
# Cells were treated with the indicated inhibitor
# After incubation, the inhibitor-containing medium was aspirated, and a washout procedure was performed to remove unbound inhibitor. Each well was washed twice by sequential addition and removal of 100 µL Opti-MEM (Thermo Fisher Scientific). Following the final wash, 90 µL Opti-MEM was added per well, followed by 100 µL of 2× Nano-Glo® substrate solution (Promega) and 10 µL of 20× SIRT2-Tracer solution.
# BRET measurements were recorded kinetically using a Tecan Spark® plate reader equipped with donor (460 nm)
# The BRET ratio was monitored over time to track the re-binding of the
# [5] = target: T5, NanoLuc–SIRT2 fusion protein in HEK293T cells; assay: NanoBRET cellular target engagement assay; format: cell-based; conditions: without digitonin
# Procedure: The NanoBRET target engagement assay was performed as previously described[2] with the modification that stably transfected HEK293T cells expressing the NanoLuc-tagged SIRT250-356 fusion protein were used instead of transient transfection. Briefly, HEK293T-NLuc- SIRT250-356 cells were cultured under standard conditions (37 °C, 5% CO2) in DMEM supplemented with 10% fetal bovine serum, 2 mM glutamine, and 300 µg/mL hygromycin as a selection marker. For the assay, cells were trypsinized, resuspended in Opti-MEM® reduced serum medium, and adjusted to a concentration of 2 × 10^5 cells per mL. […]
# µM was used. Serially diluted inhibitor and tracer were added to the cell suspension, and 100 μL were seeded into 96-well white, sterile, nonbinding surface plates. To evaluate the cellular permeability of LTDi-1 (6), the non-ionic detergent digitonin (50 µg/ml) was added. Plates were incubated at 37 °C with 5% CO2 for 2 h. For BRET measurements, NanoBRET NanoGlo Substrate (Promega cat. #N1571) was added to the wells according to the […]
# All measurements were performed using the 2102 EnVisionTM Multilabel Reader (PerkinElmer), equipped with a 460 nm filter (donor) and a 615 nm filter (acceptor). The BRET ratio was calculated as the ratio of acceptor to donor signal, and data were normalized to vehicle-treated controls. Apparent intracellular binding affinities (EC50 values) were determined by fitting dose-response curves using nonlinear regression analysis in GraphPad Prism. […]
# [6] = target: BT-6 (biotinylated analogue of compound 6); assay: BLI; SIRT2 (25–400 nM) incubated 1 h with BT-6 (500 nM) without NAD+, then immobilised on streptavidin-coated biosensors; dissociation followed
# [7] = target: BT-6 (biotinylated analogue of compound 6); assay: BLI; SIRT2 (25–400 nM) incubated 1 h with BT-6 (500 nM) and NAD+ (500 µM), then immobilised on streptavidin-coated biosensors; dissociation followed
# [8] = 15 min NAD+ preincubation, read-out: IC50, SIRT2 demyristoylation after NAD+ preincubation
# [9] = BSA-Assay, 25 °C, read-out: SIRT2 (demyr.) IC50
Molecule,IC50 (SIRT2 [1]) [nM],IC50 (SIRT1) [nM],IC50 (SIRT2 [2]; [8]) [nM],IC50 (SIRT2 [2]; [9]) [nM],IC50 (SIRT3) [nM],also measured
CCCCCCCCCCCCc1cn(CCC[C@H](NC(=O)[C@H](CCCCN)NC(=O)[C@@H]2CCCN2C(=O)[C@H](CC(C)C)NC(=O)[C@H](C)NC(=O)[C@H](CCC(=O)O)NC(C)=O)C(=O)N[C@H](C(=O)NCC(=O)NCC(N)=O)[C@@H](C)O)nn1 [Compound 5],< 100,14200 ± 1500,760 ± 250,1940 ± 510,3300 ± 200,ΔTm at 10 µM (SIRT2 [3]): 9.9 °C
CCCCCCCCCCCCc1cn(CCCC[C@H](NC(=O)[C@H](CCCCN)NC(=O)[C@@H]2CCCN2C(C)=O)C(=O)N[C@H](C(N)=O)[C@@H](C)O)nn1 [Compound 6b],,,,,,inhibition after washout [4]: retained full inhibition throughout; extent of cellular target engagement [5]: complete target engagement
CCCCCCCCCCCCc1cn(CCCC[C@H](NC(=O)[C@H](CCCCN)NC(C)=O)C(N)=O)nn1 [Compound 6a],< 100,230 ± 20,36 ± 2,460 ± 40,8200 ± 400,
"Cc1cc(C)nc(SCC(=O)Nc2ncc(Cc3cccc(OCc4cn(Cc5ccc(OCCN6CCOCC6)cc5)nn4)c3)s2)n1 [Compound 2, reference compound]",120 ± 10,,,50 ± 10,,SIRT1 (deac.) IC50 (SIRT1): n.i.; SIRT3 (deac.) IC50 (SIRT3): n.i.
B1,,,,,,koff [6]: 0.0071 s⁻¹; koff [7]: 0.00026 s⁻¹
